Reference: US10399932B2, “Inhibitors of indoleamine-2,3-dioxygenase for the treatment of cancer” (BRISTOL-MYERS SQUIBB COMPANY, priority 2015, dated 2019)

These compounds were tested against human IDO1 (Homo sapiens, UniProt P14902) (assay: Assessment of human IDO-1 inhibitory activity in HEK cells (human IDO1/HEK293 cells, Ehrlich reagent, absorbance at 490 nm)). Conditions: In Vitro Potency in the HEK Human IDO-1 Cellular Assay.
Type: cell-based
Parameters: expressed in transfected cells
Description: Exemplary compounds were tested for inhibition of IDO activity.
HEK293 cells were transfected with a pCDNA-based mammalian expression vector harboring human IDO1 cDNA (NM 002164.2) by electroporation. They were cultured in medium (DMEM with 10% FBS) containing 1 mg/ml G418 for two weeks. Clones of HEK293 cells that stably expressed human IDO1 protein were selected and expanded for IDO inhibition assay.
The human IDO1/HEK293 cells were seeded at 10,000 cells per 50 μL per well with RPMI/phenol red free media contains 10% FBS in a 384-well black wall clear bottom tissue culture plate (Matrix Technologies LLC) 100 nL of certain concentration of compound was then added to each well using ECHO liquid handling systems. The cells were incubated for 20 hours in 37° C. incubator with 5% CO2.
The compound treatments were stopped by adding trichloroacetic acid (Sigma-Aldrich) to a final concentration at 0.2%. The cell plate was further incubated at 50° C. for 30 minute. The equal volume supernatant (20 μL) and 0.2% (w/v) Ehrlich reagent (4-dimethylaminobenzaldehyde, Sigma-Aldrich) in glacial acetic acid were mixed in a new clear bottom 384-well plate. This plate was then incubated at room temperature for 30 minute. The absorbance at 490 nm was measured on Envision plate reader.
Compound IC50 values were calculated using the counts of 500 nM of a reference standard treatment as one hundred percent inhibition, and counts of no compound but DMSO treatment as zero percent inhibition.

Sequence of human IDO1 (P14902 whole entry): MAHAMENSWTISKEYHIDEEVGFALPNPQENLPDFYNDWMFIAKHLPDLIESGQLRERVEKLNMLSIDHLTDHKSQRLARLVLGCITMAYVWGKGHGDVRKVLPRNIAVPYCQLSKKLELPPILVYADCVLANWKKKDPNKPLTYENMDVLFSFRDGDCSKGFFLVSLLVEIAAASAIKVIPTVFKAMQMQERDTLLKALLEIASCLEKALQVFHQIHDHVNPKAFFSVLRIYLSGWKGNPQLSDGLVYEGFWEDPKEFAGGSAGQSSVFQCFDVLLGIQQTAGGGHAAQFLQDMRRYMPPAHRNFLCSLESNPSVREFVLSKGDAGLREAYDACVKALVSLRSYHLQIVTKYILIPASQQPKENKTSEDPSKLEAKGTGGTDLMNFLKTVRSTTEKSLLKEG

| SMILES | IC50 [µM] |
| --- | --- |
| CCN(c1ccc(C(CC(=O)O)c2ccccc2)cc1Nc1ccc(Cl)cc1F)C1CCOCC1 (single isomer, unassigned) [Example 582, 3-(3-((4-chloro-2-fluorophenyl)amino)-4-(ethyl(tetrahydro-2H-pyran-4-yl)amino)phenyl)-3-phenylpropanoic acid] | < 0.05 |
| CC(C)CN(c1ccc(C(C)CC(=O)O)cc1NC(=O)Nc1cncnc1)C1CCOCC1 (single isomer, unassigned) [Example 964, 3-(4-(isobutyl(tetrahydro-2H-pyran-4-yl)amino)-3-(3-(pyrimidin-5-yl)ureido)phenyl) butanoic acid] | > 0.05 |
| CCC(CC(=O)O)c1cc(F)c(N(CC(C)C)CC(C)C)c(NC(=O)Cc2ccc(C)cc2)c1 (single isomer, unassigned) [Example 980-2] | < 0.005 |
| CCC(CC(=O)O)c1ccc(N(CC2CC2)C2CCOCC2)c(Nc2ccc3c(c2)OC(F)(F)O3)c1 (single isomer, unassigned) [Example 710, 3-(4-((cyclopropylmethyl)(tetrahydro-2H-pyran-4-yl)amino)-3-((2,2-difluorobenzo[d][1,3]dioxol-5-yl)amino)phenyl)pentanoic acid] | < 0.005 |
| COCC(CC(=O)O)c1cc(F)c(N(CC(C)C)CC(C)C)c(NC(=O)Nc2ccc(OC)cc2F)c1 (single isomer, unassigned) [Example 1189, 3-(4-(Diisobutylamino)-3-fluoro-5-(3-(2-fluoro-4-methoxyphenyl)ureido)phenyl)-4-methoxybutanoic acid] | < 0.005 |
| COCC(CC(=O)O)c1cc(F)c(N(CC(C)C)CC(C)C)c(NC(=O)Nc2ccc(Cl)cc2F)c1 (single isomer, unassigned) [Example 1195, 3-(3-(3-(4-Chloro-2-fluorophenyl)ureido)-4-(diisobutylamino)-5-fluorophenyl)-4-methoxybutanoic acid] | < 0.005 |
| COCC(CC(=O)O)c1cc(F)c(N(CC(C)C)C2CCCCC2)c(NC(=O)Cc2ccc(C)cc2)c1 (single isomer, unassigned) [Example 1174, 3-(4-(cyclohexyl(isobutyl)amino)-3-fluoro-5-(2-(p-tolyl)acetamido)phenyl)-4-methoxybutanoic acid] | < 0.05 |
| CC(C)CN(c1ccc(C(CC(=O)O)C2CC2)cc1NC(=O)Nc1ccc(Cl)cc1F)C1CCOCC1 (single isomer, unassigned) [Example 1199 Enantiomer 2, 3-(3-(3-(4-Chloro-2-fluorophenyl)ureido)-4-(isobutyl(tetrahydro-2H-pyran-4-yl)amino)phenyl)-3-cyclopropylpropanoic acid] | < 0.005 |
| CCC(CC(=O)O)c1cc(NC(=O)Nc2cnc(OC)nc2)c(N(CC(C)C)CC(C)C)cc1F (single isomer, unassigned) [Example 1142, 3-(4-(Diisobutylamino)-2-fluoro-5-(3-(2-methoxypyrimidin-5-yl)ureido)phenyl)pentanoic acid] | < 0.005 |
| CCN(c1ccc(C(CC(=O)O)c2ccccc2)cc1Nc1ccc2nc(C)sc2c1)C1CCOCC1 (single isomer, unassigned) [Example 589, 3-(4-(ethyl(tetrahydro-2H-pyran-4-yl)amino)-3-((2-methylbenzo[d]thiazol-6-yl)amino)phenyl)-3-phenylpropanoic acid] | > 0.05 |
| CCOc1ncc(Nc2cc(C(C)CC(=O)O)ccc2N2C[C@@H](C)O[C@@H](C)C2)cn1 (single isomer, unassigned) [Example 748] | > 0.05 |
| CCN(c1ccc(C(CC(=O)O)c2ccccc2)cc1Nc1ccc(C#N)cc1)C1CCOCC1 (single isomer, unassigned) [Example 591, 3-(3-((4-cyanophenyl)amino)-4-(ethyl(tetrahydro-2H-pyran-4-yl)amino)phenyl)-3-phenylpropanoic acid] | < 0.005 |
| Cc1nc2ccc(Nc3cc(C(CC(=O)O)c4ccccc4)cc(F)c3N(CC(C)C)CC(C)C)cc2s1 (single isomer, unassigned) [Example 132, 3-(4-(diisobutylamino)-3-fluoro-5-((2-methylbenzo[d]thiazol-6-yl)amino)phenyl)-3-phenylpropanoic acid] | > 0.05 |

More lines, now with the values ahead:

| IC50 [µM] | SMILES |
| --- | --- |
| < 0.05 | CCC(CC(=O)O)c1ccc(N(CC(C)C)C2CCCCC2)c(Nc2ccc(Cl)c(OCC(F)(F)F)c2)c1 (single isomer, unassigned) [Example 651, 3-(3-((4-chloro-3-(2,2,2-trifluoroethoxy)phenyl)amino)-4-(cyclohexyl(isobutyl)amino)phenyl)pentanoic acid] |
| > 0.05 | CCOc1ccc(NC(=O)Nc2cc(C(CC)CC(=O)O)ccc2N2CCC[C@@H]2C(C)(C)O)cc1 (single isomer, unassigned) [Example 778] |
| < 0.005 | CCC(CC(=O)O)c1cc(NC(=O)Nc2ccc(C)cc2)c(N(CC(C)C)C2CCCCC2)cc1F (single isomer, unassigned) [Example 1107, 3-(4-(Cyclohexyl(isobutyl)amino)-2-fluoro-5-(3-(p-tolyl)ureido)phenyl)pentanoic acid] |
| > 0.05 | CCC(CC(=O)O)c1ccc(N2CCOC[C@H]2C(C)C)c(NC(=O)Nc2ccc(C)cc2)c1 (single isomer, unassigned) [Example 907] |
| > 0.05 | CCC(CC(=O)O)c1ccc(N2CCC[C@H]2C(C)(C)O)c(Nc2ccnc(N3CCOCC3)n2)c1 (single isomer, unassigned) [Example 832] |
| > 0.05 | CCC(CC(=O)O)c1ccc(N2CCC[C@H]2C(C)(C)O)c(NC(=O)Nc2ccc(F)cc2)c1 (single isomer, unassigned) [Example 829] |
| < 0.05 | CCOc1ccc(Nc2cc(C(CC)CC(=O)O)cc(F)c2N(CC(C)C)CC(C)C)cc1 (single isomer, unassigned) [Example 113, 3-(4-(diisobutylamino)-3-((4-ethoxyphenyl)amino)-5-fluorophenyl)pentanoic acid] |
| > 0.05 | CC[C@@H](CC(=O)O)c1ccc(N(CC(C)C)C2CCS(=O)(=O)CC2)c(NC(=O)Nc2cc(C)on2)c1 (single isomer, unassigned) [Example 218] |
| > 0.05 | CCC(CC(=O)O)c1ccc(N2CCC[C@H]2C(C)(C)O)c(Nc2cnc(OCC3CC3)nc2)c1 (single isomer, unassigned) [Example 838] |
| > 0.05 | CCOc1ncc(Nc2cc(C(C)CC(=O)O)ccc2N2CCC[C@H]2C(C)(C)O)cn1 (single isomer, unassigned) [Example 806] |
| < 0.005 | COCC(CC(=O)O)c1ccc(N(CC(C)C)C2CCCCC2)c(NC(=O)Nc2ccc(C)cc2)c1 (single isomer, unassigned) [Example 989-2] |
| < 0.05 | CCOc1ccc(CC(=O)Nc2cc(C(COC)CC(=O)O)cc(F)c2N(CC(C)C)CC(C)C)cc1 (single isomer, unassigned) [Example 1193, 3-(4-(Diisobutylamino)-3-(2-(4-ethoxyphenyl)acetamido)-5-fluorophenyl)-4-methoxybutanoic acid] |
| < 0.005 | CCOc1ccc(Nc2cc([C@H](CC)CC(=O)O)ccc2N(CC)C2CCOCC2)cc1 (single isomer, unassigned) [Example 514] |
| < 0.05 | CCOc1ccc(CC(=O)Nc2cc(C(COC)CC(=O)O)cc(F)c2N(CC(C)C)C2CCCCC2)cc1 (single isomer, unassigned) [Example 1173, 3-(4-(cyclohexyl(isobutyl)amino)-3-(2-(4-ethoxyphenyl)acetamido)-5-fluorophenyl)-4-methoxybutanoic acid] |
